Patent US10517850B2, “Combination of TAFIa inhibitor with plasminogen activator” (DAIICHI SANKYO COMPANY, LIMITED, priority 2015, dated 2019)

Assays:
[1] = test system: fibrinolytic activity (D-dimer level in plasma); experiment: Test on combined use with u-PA: tissue factor-infused rats, plasma D-dimer level as index for fibrinolytic activity; type: in vivo, male Wistar rats
Description: (1) u-PA (urokinase injection “Fuji” (registered trademark) 60,000, Wakamoto Co., Ltd.) was adjusted to 90 kU/mL with injectable water.
(2) Compound A was dissolved in saline to prepare a 1.0 mg/mL solution. The solution was further diluted to 0.0050 mg/mL using saline. The dose of compound A was indicated in terms of a free form (conversion factor: 0.6301).
(3) Appropriate amounts of saline, the 90 kU/mL u-PA solution, and the 0.0050 mg/mL compound A solution were mixed to respectively prepare administration solutions for a u-PA (30 kU/kg) group, a compound A (2.5 μg/kg) group, and a combination group of u-PA (30 kU/kg) and compound A (2.5 μg/kg).
(4) 5 mL of saline was added to 10 mL (standard) of a tissue factor (Dade (registered trademark) Innovin (registered trademark), Sysmex Corp.) to prepare a tissue factor solution.
(1) Eleven-week-old male Wistar rats (Japan SLC, Inc.) were fasted from a day before the experiment. On the basis of their body weights measured in the morning on the day of the experiment, 8 rats were assigned to each of 4 groups: a control (saline) group, a u-PA (30 kU/kg) group, a compound A (2.5 μg/kg) group, and a combination group of u-PA (30 kU/kg) and compound A (2.5 μg/kg). […]
(2) For each group, the basic statistics (mean and standard error) of the D-dimer levels were calculated and used as results relating to fibrinolytic activity (Table 2). […]

[2] = test system: fibrinolytic activity (D-dimer level in plasma); experiment: Test on combined use with t-PA: tissue factor-infused rats, plasma D-dimer level as index for fibrinolytic activity; type: in vivo, male Wistar rats; settings: for D-dimer level Mean: jugular vein, blood at 45 min, N=7, control 5.0
Description: 1. Preparation of Administration Solution
(1) (2S)-5-Amino-2-{[1-(trans-4-methylcyclohexyl)-1H-imidazol-4-yl]methyl}valeric acid p-toluenesulfonate anhydrate (hereinafter, referred to as “compound A”) was dissolved in saline to prepare a 1.0 mg/mL solution. The solution was further diluted to 0.0050 mg/mL using saline. The dose of compound A was indicated in terms of a free form (conversion factor: 0.6301).
(2) t-PA (alteplase (Activacin (registered trademark) for Injection 6,000,000), Kyowa Hakko Kirin Co., Ltd.) was adjusted to 600,000 I.U./mL (which was defined as 1.0 mg/mL) with injectable water included therein. The resulting solution was further diluted to 0.17, 0.083, and 0.042 mg/mL using saline.
(3) The 0.0050 mg/mL compound A solution was mixed with an equal amount of saline or the 0.042 mg/mL t-PA solution to respectively prepare administration solutions for a compound A (2.5 μg/kg) group and a combination group. The 0.17, 0.083, and 0.042 mg/mL t-PA solutions were mixed with an equal amount of saline to respectively prepare administration solutions for t-PA (0.083, 0.042, and 0.021 mg/kg) groups.
(4) 4 mL of saline was added to 10 mL (standard) of a tissue factor (Dade (registered trademark) Innovin (registered trademark), Sysmex Corp.) to prepare a tissue factor solution.
(1) Ten-week-old male Wistar rats (Japan SLC, Inc.) were fasted from a day before the experiment. On the basis of their body weights measured in the morning on the day of the experiment, 7 rats were assigned to each of 6 groups: a control (saline) group, a compound A (2.5 μg/kg) group, t-PA (0.021, 0.042, and 0.083 mg/kg) groups, and a combination group of compound A (2.5 μg/kg) and t-PA (0.021 mg/kg).
(2) These rats were anesthetized by the administration of 100 mg/kg thiopental sodium (Ravonal (registered trademark), Mitsubishi Tanabe Pharma Corp.), and the tissue factor solution was continuously administered at 7.5 mL/kg/hr for 20 minutes from the jugular veins. 25 minutes after the start of the administration of the tissue factor, the administration solution for each group was rapidly administered from the jugular veins. 45 minutes after the start of the administration of the tissue factor, blood was collected from the jugular veins into syringes supplemented with citric acid in advance, and plasma was prepared by centrifugation. The plasma was diluted 20-fold using a factor diluent (LSI Medience Corp.). D-dimer levels were measured using LPIA-Ace D-D dimer II and ACL TOP 500 CTS (Instrumentation Laboratory) and used as an index for fibrinolytic activity (FIG. 1).
(1) Microsoft Excel 2003 and SAS System Release 8.2 were used in statistical analysis.
(2) For each group, the basic statistics (mean and standard error) of the D-dimer levels were calculated and used as results relating to fibrinolytic activity (Table 1).
(3) The comparison of the compound A (2.5 μg/kg) group with the control (saline) group was carried out by the Student's t test. The calculated P value was rounded off and indicated down to four decimal places, and the significance level was set to two-sided 5%.
(4) The comparison of the t-PA (0.021, 0.042, and 0.083 mg/kg) groups with the control (saline) group was carried out by the parametric Dunnett's test. The calculated P value was rounded off and indicated down to four decimal places, and the significance level was set to two-sided 5%.
(5) The comparison of the compound A (2.5 μg/kg) group or the t-PA (0.021 mg/kg) single administration group with the combination group was carried out by the parametric Dunnett's test. The calculated P value was rounded off and indicated down to four decimal places, and the significance level was set to two-sided 5%.
(6) The comparison of the compound A (2.5 μg/kg) group or the t-PA (0.021 mg/kg) single administration group with the combination group was carried out by two-way ANOVA. […]

Molecule | D-dimer level Mean ([1]; compound A 2.5 μg/kg (free form) alone, jugular vein, blood at 45 min, N=8, control 24.2) [µg/mL] | fibrinolytic activity (D-dimer level) with respect to the control group ([1]; compound A 2.5 μg/kg single administration, Student's t test, P=0.0019) | D-dimer level Mean ([2]; compound A 2.5 μg/kg (free form) alone, 25 min after start of tissue factor) [µg/mL] | fibrinolytic activity (D-dimer level) with respect to the control (saline) group ([2]; compound A 2.5 μg/kg, Student's t test, P=0.1431) | D-dimer level Mean ([2]; t-PA 0.021 mg/kg alone) [µg/mL] | fibrinolytic activity (D-dimer level) with respect to the control (saline) group ([2]; t-PA 0.021 mg/kg, parametric Dunnett's test, P=0.3080) | D-dimer level Mean ([2]; t-PA 0.042 mg/kg alone) [µg/mL] | fibrinolytic activity (D-dimer level) with respect to the control (saline) group ([2]; t-PA 0.042 mg/kg, parametric Dunnett's test, P<0.0001) | D-dimer level Mean ([2]; t-PA 0.083 mg/kg alone) [µg/mL] | fibrinolytic activity (D-dimer level) with respect to the control (saline) group ([2]; t-PA 0.083 mg/kg, parametric Dunnett's test, P<0.0001)
C[C@H]1CC[C@H](n2cnc(C[C@H](CCCN)C(=O)O)c2)CC1.Cc1ccc(S(=O)(=O)O)cc1 (relative stereo) [Compound A, (2S)-5-Amino-2-{[1-(trans-4-methylcyclohexyl)-1H-imidazol-4-yl]methyl}valeric acid p-toluenesulfonate anhydrate] | 103.8 | exhibited significantly excellent fibrinolytic activity | 26.4 | did not exhibit significantly excellent fibrinolytic activity | – | – | – | – | – | –
t-PA: tissue plasminogen activator, alteplase (Activacin for Injection 6,000,000, Kyowa Hakko Kirin) | – | – | – | – | 25.0 | did not exhibit significantly excellent fibrinolytic activity | 95.2 | exhibited significantly excellent fibrinolytic activity | 254.7 | exhibited significantly excellent fibrinolytic activity
